Consider eleven compounds from ChEMBL document CHEMBL4184190, “Podophyllotoxin derivatives as an excellent anticancer aspirant for future chemotherapy: A key current imminent needs” (Bioorg Med Chem, 2018).

Molecules are shown by their SMILES.

One assay relates to HeLa. Kind of assay: Cytotoxicity against human HeLa cells after 48 hrs by MTT assay.
Conditions: not given
In kind it is functional, cell-based. Background: Formazan colour is commonly taken as a measure of viable cells.
Take `COc1ccc2nc([C@@H]3c4cc5c(cc4[C@@H](c4cc(OC)c(OC)c(OC)c4)[C@H]4C(=O)OC[C@H]34)OCO5)oc2c1`: the IC50 lay within 1.2 to 5.3 µM.

The compound `COc1cc([C@@H]2c3cc4c(cc3[C@@H](Nc3ncccc3F)[C@H]3COC(=O)[C@H]23)OCO4)cc(OC)c1O` yielded a 50% inhibitory concentration (IC50) of 0.06 µM.

As to `COc1cc([C@@H]2c3cc4c(cc3[C@@H](c3nc5ccccc5o3)[C@H]3COC(=O)[C@H]23)OCO4)cc(OC)c1OC`, the IC50 was 1.2 to 5.3 µM.

In the case of `COc1cc([C@@H]2c3cc4c(cc3[C@@H](Nc3ncccc3F)[C@H]3COC(=O)[C@H]23)OCO4)cc(OC)c1OC`, the IC50 came to 0.2 µM.

As for `COc1cc([C@@H]2c3cc4c(cc3[C@@H](c3nc5ccc(Cl)cc5o3)[C@H]3COC(=O)[C@H]23)OCO4)cc(OC)c1OC`, the IC50 fell in the range of 1.2 to 5.3 µM.

`COc1cc([C@@H]2c3cc4c(cc3[C@@H](c3nc5ccc(OC)c(OC)c5o3)[C@H]3COC(=O)[C@H]23)OCO4)cc(OC)c1OC` came in with an IC50 of 1.2 to 5.3 µM.

As for `COc1cc([C@@H]2c3cc4c(cc3[C@@H](O[C@@H]3O[C@@H]5CO[C@@H](C)O[C@H]5[C@H](O)[C@H]3O)[C@H]3COC(=O)[C@H]23)OCO4)cc(OC)c1O` [ETOPOSIDE], the IC50 fell in the range of 2.03 to 5.74 µM.

A further assay relates to DU-145. Kind of assay: Cytotoxicity against human DU145 cells after 48 hrs by MTT assay. In kind it is functional, cell-based. Particulars: DU-145, 48 h.
As for `COc1ccc2nc([C@@H]3c4cc5c(cc4[C@@H](c4cc(OC)c(OC)c(OC)c4)[C@H]4C(=O)OC[C@H]34)OCO5)oc2c1`, the IC50 was 1.2 to 5.3 µM.

The compound `COc1cc([C@@H]2c3cc4c(cc3[C@@H](c3nc5ccccc5o3)[C@H]3COC(=O)[C@H]23)OCO4)cc(OC)c1OC` yielded an IC50 of 1.2 to 5.3 µM.

`COc1cc([C@@H]2c3cc4c(cc3[C@@H](c3nc5ccc(Cl)cc5o3)[C@H]3COC(=O)[C@H]23)OCO4)cc(OC)c1OC` showed an IC50 of 1.2 to 5.3 µM.

The compound `COc1cc([C@@H]2c3cc4c(cc3[C@@H](c3nc5ccc(OC)c(OC)c5o3)[C@H]3COC(=O)[C@H]23)OCO4)cc(OC)c1OC` showed a 50% inhibitory concentration (IC50) of 1.2 to 5.3 µM.

`COc1cc([C@@H]2c3cc4c(cc3[C@@H](O[C@@H]3O[C@@H]5CO[C@@H](C)O[C@H]5[C@H](O)[C@H]3O)[C@H]3COC(=O)[C@H]23)OCO4)cc(OC)c1O` [ETOPOSIDE]: the IC50 lay in the range of 2.03 to 5.74 µM.

A further assay relates to A549. Put plainly: Cytotoxicity against human A549 cells after 48 hrs by MTT assay. As to conditions: A549, 48 h. Type of assay: functional, cell-based.
The compound `COc1ccc2nc([C@@H]3c4cc5c(cc4[C@@H](c4cc(OC)c(OC)c(OC)c4)[C@H]4C(=O)OC[C@H]34)OCO5)oc2c1` yielded an IC50 of 1.2 to 5.3 µM.

The compound `COc1cc([C@@H]2c3cc4c(cc3[C@@H](Nc3cccc(CN5CCCCC5)c3)[C@H]3COC(=O)[C@H]23)OCO4)cc(OC)c1OC` returned an IC50 of 14.5 µM.

`COc1cc([C@@H]2c3cc4c(cc3[C@@H](c3nc5ccccc5o3)[C@H]3COC(=O)[C@H]23)OCO4)cc(OC)c1OC` came in with an IC50 of 1.2 to 5.3 µM.

`COc1cc([C@@H]2c3cc4c(cc3[C@@H](c3nc5ccc(Cl)cc5o3)[C@H]3COC(=O)[C@H]23)OCO4)cc(OC)c1OC` came in with an IC50 of 1.2 to 5.3 µM.

The compound `COc1cc([C@@H]2c3cc4c(cc3[C@@H](c3nc5ccc(OC)c(OC)c5o3)[C@H]3COC(=O)[C@H]23)OCO4)cc(OC)c1OC` yielded an IC50 of 1.8 µM.

With `COc1cc([C@@H]2c3cc4c(cc3[C@@H](O[C@@H]3O[C@@H]5CO[C@@H](C)O[C@H]5[C@H](O)[C@H]3O)[C@H]3COC(=O)[C@H]23)OCO4)cc(OC)c1O` [ETOPOSIDE], the IC50 was 2.03 to 5.74 µM.

The next assay has as its system MCF7. Kind of assay: Cytotoxicity against human MCF7 cells after 48 hrs by MTT assay. Type of assay: functional, cell-based. Particulars: MCF7, 48 h.
`COc1ccc2nc([C@@H]3c4cc5c(cc4[C@@H](c4cc(OC)c(OC)c(OC)c4)[C@H]4C(=O)OC[C@H]34)OCO5)oc2c1` displayed an IC50 of 1.2 to 5.3 µM.

With `COc1cc([C@@H]2c3cc4c(cc3[C@@H](Nc3ncccc3F)[C@H]3COC(=O)[C@H]23)OCO4)cc(OC)c1O`, inhibition was half-maximal at 1.42 µM (IC50).

Compound `COc1cc([C@@H]2c3cc4c(cc3[C@@H](c3nc5ccccc5o3)[C@H]3COC(=O)[C@H]23)OCO4)cc(OC)c1OC` came in with an IC50 of 1.2 to 5.3 µM.

As to `COc1cc([C@@H]2c3cc4c(cc3[C@@H](Nc3ncccc3F)[C@H]3COC(=O)[C@H]23)OCO4)cc(OC)c1OC`, half-maximal inhibition (IC50) was put at 4.49 µM.

As for `COc1cc([C@@H]2c3cc4c(cc3[C@@H](c3nc5ccc(Cl)cc5o3)[C@H]3COC(=O)[C@H]23)OCO4)cc(OC)c1OC`, the IC50 lay within 1.2 to 5.3 µM.

`COc1cc([C@@H]2c3cc4c(cc3[C@@H](c3nc5ccc(OC)c(OC)c5o3)[C@H]3COC(=O)[C@H]23)OCO4)cc(OC)c1OC`: the IC50 turned out to be 2 µM.

On to `COc1cc([C@@H]2c3cc4c(cc3[C@@H](O[C@@H]3O[C@@H]5CO[C@@H](C)O[C@H]5[C@H](O)[C@H]3O)[C@H]3COC(=O)[C@H]23)OCO4)cc(OC)c1O` [ETOPOSIDE], for which the IC50 lay in the range of 2.03 to 5.74 µM.

A further assay deals with K562. Kind of assay: Cytotoxicity against human K562 cells after 48 hrs by MTT assay. In kind it is functional, cell-based. As to conditions: K562, 48 h.
`COc1cc([C@@H]2c3cc4c(cc3[C@@H](Nc3cccc(CN5CCCCC5)c3)[C@H]3COC(=O)[C@H]23)OCO4)cc(OC)c1OC` showed an IC50 of 1.1 µM.

The subject of a further assay is U-251. Put plainly: Cytotoxicity against human U251 cells after 48 hrs by MTT assay. Particulars: U-251, 48 h. Type of assay: functional, cell-based.
For `COc1cc([C@@H]2c3cc4c(cc3[C@@H](Nc3cccc(CN5CCCCC5)c3)[C@H]3COC(=O)[C@H]23)OCO4)cc(OC)c1OC`, the IC50 worked out at 0.4 µM.

In the next assay the test system is HeLa. Put plainly: Cytotoxicity against human HeLa cells by MTT assay. In kind it is functional, cell-based.
Conditions: not given
Turning to `COc1cc([C@@H]2c3cc4c(cc3[C@@H](NC(=O)C(=O)c3c[nH]c5ccc(C(=O)N6CCCCC6)cc35)[C@H]3COC(=O)[C@H]23)OCO4)cc(OC)c1OC`, the IC50 turned out to be 5.57 µM.

Take `COc1cc([C@@H]2c3cc4c(cc3[C@@H](NC(=O)C(=O)c3c[nH]c5ccc(C(=O)NC(C)C)cc35)[C@H]3COC(=O)[C@H]23)OCO4)cc(OC)c1OC`: the IC50 worked out at 3.92 µM.

The compound `CCN(CC)C(=O)c1ccc2[nH]cc(C(=O)C(=O)N[C@@H]3c4cc5c(cc4[C@@H](c4cc(OC)c(OC)c(OC)c4)[C@H]4C(=O)OC[C@@H]43)OCO5)c2c1` gave an IC50 of 5.19 µM.

The test system of the next assay is BGC-823. Kind of assay: Cytotoxicity against human BGC823 cells after 48 hrs by MTT assay. In kind it is functional, cell-based. Particulars: BGC-823, 48 h.
In turn, `COc1cc([C@@H]2c3cc4c(cc3[C@@H](Nc3ncccc3F)[C@H]3COC(=O)[C@H]23)OCO4)cc(OC)c1O` came in with an IC50 of 0.96 µM.

With `COc1cc([C@@H]2c3cc4c(cc3[C@@H](Nc3ncccc3F)[C@H]3COC(=O)[C@H]23)OCO4)cc(OC)c1OC`, the IC50 turned out to be 2.18 µM.

As usually defined, the IC50 is the concentration at which inhibition is half-maximal. Low values mean greater potency in that assay, high ones weaker potency in that assay.
